Reference: ChEMBL document CHEMBL5465560, “Selectivity Literature for EUbOPEN Chemogenomic Library” (2024)

Tests used:
[1] = molecular target: T1, Serine/threonine-protein kinase Nek2 (Homo sapiens) (UniProt P51955); assay: Selectivity interaction (Kinase panel (DSF assay)) EUB0001559a NEK2
T1 sequence (whole entry): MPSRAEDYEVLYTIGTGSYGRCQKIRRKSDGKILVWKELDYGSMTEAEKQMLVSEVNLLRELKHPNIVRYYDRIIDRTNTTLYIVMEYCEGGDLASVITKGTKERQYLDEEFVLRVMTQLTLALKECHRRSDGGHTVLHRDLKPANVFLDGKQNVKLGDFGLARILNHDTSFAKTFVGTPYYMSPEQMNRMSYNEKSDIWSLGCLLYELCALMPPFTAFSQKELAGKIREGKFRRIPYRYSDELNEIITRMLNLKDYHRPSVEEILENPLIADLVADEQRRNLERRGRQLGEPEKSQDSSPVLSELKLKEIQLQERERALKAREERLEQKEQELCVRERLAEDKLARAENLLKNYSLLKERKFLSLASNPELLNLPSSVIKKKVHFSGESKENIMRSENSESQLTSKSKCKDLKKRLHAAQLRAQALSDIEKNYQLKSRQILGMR

[2] = molecular target: Vascular endothelial growth factor receptor 1 (Homo sapiens) (UniProt P17948); assay: Selectivity interaction (SelectScreen profiling (Invitrogen)) EUB0000607a FLT1; conditions: at 2 µM
Sequence of Vascular endothelial growth factor receptor 1 (Homo sapiens) (P17948 whole entry): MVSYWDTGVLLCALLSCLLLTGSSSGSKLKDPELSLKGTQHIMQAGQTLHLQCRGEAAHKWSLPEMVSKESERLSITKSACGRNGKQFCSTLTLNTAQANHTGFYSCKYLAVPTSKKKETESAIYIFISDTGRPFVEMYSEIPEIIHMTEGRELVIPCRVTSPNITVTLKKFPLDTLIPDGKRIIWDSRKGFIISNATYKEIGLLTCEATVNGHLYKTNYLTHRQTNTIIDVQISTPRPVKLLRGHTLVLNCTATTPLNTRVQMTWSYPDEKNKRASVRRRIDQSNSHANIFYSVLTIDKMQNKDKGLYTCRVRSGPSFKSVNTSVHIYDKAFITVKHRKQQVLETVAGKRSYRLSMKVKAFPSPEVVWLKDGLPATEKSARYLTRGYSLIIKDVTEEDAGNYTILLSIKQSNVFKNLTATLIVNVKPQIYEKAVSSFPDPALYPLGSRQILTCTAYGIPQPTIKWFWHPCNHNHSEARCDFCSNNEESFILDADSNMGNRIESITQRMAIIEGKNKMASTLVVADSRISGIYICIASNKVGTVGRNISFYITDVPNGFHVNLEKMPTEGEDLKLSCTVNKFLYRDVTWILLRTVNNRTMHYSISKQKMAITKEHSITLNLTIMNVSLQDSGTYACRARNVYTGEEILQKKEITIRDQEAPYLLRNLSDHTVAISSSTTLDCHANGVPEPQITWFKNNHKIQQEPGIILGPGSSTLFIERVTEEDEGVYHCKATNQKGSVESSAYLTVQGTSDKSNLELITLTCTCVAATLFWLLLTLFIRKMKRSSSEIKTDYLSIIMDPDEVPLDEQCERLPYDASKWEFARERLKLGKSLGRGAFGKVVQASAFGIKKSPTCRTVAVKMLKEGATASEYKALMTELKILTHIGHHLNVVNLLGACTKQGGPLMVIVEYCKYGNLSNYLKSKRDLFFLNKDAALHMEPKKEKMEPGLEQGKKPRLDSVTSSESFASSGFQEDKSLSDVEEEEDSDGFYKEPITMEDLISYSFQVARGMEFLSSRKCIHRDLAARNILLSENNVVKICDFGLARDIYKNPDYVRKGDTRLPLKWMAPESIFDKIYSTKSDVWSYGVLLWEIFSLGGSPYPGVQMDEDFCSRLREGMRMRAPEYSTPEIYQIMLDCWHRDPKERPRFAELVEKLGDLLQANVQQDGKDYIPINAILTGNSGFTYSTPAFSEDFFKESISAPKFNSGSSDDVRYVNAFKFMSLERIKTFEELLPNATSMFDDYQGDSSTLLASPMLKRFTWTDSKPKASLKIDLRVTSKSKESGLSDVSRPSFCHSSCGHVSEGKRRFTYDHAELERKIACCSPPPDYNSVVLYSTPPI

[3] = molecular target: Mitogen-activated protein kinase 7 (Homo sapiens) (UniProt Q13164); assay: Selectivity interaction (KinomeScan (DiscoverX)) EUB0000607a MAPK7; conditions: at 10 µM
Sequence of Mitogen-activated protein kinase 7 (Homo sapiens) (Q13164 2-816 limits assumed): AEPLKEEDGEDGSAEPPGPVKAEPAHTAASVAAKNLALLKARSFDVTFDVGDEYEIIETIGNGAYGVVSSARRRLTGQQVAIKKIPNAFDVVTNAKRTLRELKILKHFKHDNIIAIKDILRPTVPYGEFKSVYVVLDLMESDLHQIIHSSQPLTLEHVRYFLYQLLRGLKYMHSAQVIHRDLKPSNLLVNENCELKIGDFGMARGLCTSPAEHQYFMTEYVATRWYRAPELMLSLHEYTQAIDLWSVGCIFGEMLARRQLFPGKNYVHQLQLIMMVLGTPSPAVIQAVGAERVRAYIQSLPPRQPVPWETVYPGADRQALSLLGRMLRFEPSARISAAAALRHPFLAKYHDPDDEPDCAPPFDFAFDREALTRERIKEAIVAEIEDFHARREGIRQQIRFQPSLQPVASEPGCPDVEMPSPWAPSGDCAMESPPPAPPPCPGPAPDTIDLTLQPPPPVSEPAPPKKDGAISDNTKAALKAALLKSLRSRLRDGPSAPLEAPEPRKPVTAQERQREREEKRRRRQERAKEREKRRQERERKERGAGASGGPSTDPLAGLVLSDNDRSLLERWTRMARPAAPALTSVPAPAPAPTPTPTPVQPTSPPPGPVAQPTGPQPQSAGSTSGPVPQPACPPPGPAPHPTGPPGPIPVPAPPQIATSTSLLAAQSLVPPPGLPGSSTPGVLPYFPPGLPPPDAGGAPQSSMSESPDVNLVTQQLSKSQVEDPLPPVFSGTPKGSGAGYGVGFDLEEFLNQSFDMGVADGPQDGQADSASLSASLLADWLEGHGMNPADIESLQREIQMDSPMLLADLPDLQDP

[4] = molecular target: SRSF protein kinase 1 (Homo sapiens, UniProt Q96SB4); assay: Selectivity interaction (KinomeScan (DiscoverX)) EUB0000595a SRPK1; conditions: at 10 µM
Sequence of SRSF protein kinase 1 (Q96SB4 whole entry): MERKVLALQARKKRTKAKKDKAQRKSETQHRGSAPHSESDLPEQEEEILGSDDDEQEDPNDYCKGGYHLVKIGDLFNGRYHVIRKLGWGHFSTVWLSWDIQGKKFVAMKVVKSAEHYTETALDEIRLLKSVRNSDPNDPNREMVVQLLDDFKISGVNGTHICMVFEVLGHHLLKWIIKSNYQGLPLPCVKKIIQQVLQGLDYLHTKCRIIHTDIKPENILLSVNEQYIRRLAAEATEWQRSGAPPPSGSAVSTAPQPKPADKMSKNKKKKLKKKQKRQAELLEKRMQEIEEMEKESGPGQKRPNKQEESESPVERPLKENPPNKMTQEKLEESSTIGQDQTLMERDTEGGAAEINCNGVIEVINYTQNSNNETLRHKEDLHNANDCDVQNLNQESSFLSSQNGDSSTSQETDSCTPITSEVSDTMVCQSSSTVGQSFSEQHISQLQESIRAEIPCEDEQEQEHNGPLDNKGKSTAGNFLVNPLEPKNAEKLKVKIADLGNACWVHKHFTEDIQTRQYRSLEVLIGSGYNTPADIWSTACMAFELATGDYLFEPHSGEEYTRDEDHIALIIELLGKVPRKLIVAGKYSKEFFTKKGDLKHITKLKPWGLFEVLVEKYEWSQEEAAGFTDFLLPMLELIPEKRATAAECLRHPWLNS

[5] = molecular target: Interleukin-1 receptor-associated kinase 1 (Homo sapiens) (UniProt P51617); assay: Selectivity interaction (Kinase panel (Invitrogen)) EUB0000639a IRAK1; conditions: at 200 nM
Sequence of Interleukin-1 receptor-associated kinase 1 (Homo sapiens) (P51617 whole entry, looked up): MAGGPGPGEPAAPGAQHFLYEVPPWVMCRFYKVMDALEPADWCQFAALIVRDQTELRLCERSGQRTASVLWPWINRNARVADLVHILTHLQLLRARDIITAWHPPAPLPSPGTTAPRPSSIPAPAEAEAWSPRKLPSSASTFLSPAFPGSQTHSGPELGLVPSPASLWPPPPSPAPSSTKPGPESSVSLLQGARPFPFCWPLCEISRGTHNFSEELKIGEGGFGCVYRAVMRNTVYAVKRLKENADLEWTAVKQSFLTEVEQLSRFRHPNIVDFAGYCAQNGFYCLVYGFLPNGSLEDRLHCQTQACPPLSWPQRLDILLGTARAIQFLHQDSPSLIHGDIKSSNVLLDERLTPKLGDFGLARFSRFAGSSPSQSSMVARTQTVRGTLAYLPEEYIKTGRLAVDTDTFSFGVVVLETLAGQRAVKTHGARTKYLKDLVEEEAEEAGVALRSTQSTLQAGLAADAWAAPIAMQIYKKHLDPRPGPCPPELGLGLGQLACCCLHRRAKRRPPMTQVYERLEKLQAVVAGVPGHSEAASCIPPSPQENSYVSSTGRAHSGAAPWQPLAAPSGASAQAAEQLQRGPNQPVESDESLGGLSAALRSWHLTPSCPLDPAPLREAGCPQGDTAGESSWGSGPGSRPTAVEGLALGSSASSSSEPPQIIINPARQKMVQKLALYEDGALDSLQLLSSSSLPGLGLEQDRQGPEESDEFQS

[6] = molecular target: Maternal embryonic leucine zipper kinase (Homo sapiens) (UniProt Q14680); assay: Selectivity interaction (Kinase panel (Invitrogen)) EUB0000639a MELK; conditions: at 200 nM
Sequence of Maternal embryonic leucine zipper kinase (Homo sapiens) (Q14680 whole entry, looked up): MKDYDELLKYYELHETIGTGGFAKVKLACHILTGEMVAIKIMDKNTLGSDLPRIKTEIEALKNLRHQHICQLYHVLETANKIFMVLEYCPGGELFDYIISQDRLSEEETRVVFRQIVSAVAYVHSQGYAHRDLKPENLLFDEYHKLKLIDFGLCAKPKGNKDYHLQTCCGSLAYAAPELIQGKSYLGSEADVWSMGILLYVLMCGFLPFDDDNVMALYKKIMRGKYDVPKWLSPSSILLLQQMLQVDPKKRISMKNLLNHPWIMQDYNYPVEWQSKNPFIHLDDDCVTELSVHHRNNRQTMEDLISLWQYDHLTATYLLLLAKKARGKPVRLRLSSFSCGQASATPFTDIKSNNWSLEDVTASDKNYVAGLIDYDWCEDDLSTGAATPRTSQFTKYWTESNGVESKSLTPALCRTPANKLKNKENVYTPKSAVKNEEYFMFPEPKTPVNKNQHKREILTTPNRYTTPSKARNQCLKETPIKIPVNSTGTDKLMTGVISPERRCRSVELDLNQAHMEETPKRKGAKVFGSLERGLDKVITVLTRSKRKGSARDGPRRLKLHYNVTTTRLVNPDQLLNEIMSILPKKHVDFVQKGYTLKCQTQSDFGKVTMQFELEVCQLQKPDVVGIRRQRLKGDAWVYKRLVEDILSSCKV

[7] = molecular target: T2, Cyclin-dependent kinase 5 (Homo sapiens, UniProt Q00535); assay: Selectivity interaction (ActivX KiNativ screen (kinase selectivity in THP-1 cell lysates)) EUB0000639a CDK5; assay type: subcellular; conditions: lysate, at 0.04 µM
T2 sequence (Q00535 whole entry, looked up): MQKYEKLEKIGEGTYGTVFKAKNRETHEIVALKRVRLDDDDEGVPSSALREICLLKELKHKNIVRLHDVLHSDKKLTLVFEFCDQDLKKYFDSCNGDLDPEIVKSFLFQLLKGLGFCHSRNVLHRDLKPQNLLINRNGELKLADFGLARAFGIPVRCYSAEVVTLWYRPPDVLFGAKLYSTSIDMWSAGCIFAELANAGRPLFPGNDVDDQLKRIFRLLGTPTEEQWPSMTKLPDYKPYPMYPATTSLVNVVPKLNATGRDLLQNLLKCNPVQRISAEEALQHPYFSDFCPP

[8] = molecular target: T3, MAP/microtubule affinity-regulating kinase 4 (Homo sapiens) (UniProt Q96L34); assay: Selectivity interaction (ProQinase) EUB0000171b MARK4
T3 sequence (whole entry): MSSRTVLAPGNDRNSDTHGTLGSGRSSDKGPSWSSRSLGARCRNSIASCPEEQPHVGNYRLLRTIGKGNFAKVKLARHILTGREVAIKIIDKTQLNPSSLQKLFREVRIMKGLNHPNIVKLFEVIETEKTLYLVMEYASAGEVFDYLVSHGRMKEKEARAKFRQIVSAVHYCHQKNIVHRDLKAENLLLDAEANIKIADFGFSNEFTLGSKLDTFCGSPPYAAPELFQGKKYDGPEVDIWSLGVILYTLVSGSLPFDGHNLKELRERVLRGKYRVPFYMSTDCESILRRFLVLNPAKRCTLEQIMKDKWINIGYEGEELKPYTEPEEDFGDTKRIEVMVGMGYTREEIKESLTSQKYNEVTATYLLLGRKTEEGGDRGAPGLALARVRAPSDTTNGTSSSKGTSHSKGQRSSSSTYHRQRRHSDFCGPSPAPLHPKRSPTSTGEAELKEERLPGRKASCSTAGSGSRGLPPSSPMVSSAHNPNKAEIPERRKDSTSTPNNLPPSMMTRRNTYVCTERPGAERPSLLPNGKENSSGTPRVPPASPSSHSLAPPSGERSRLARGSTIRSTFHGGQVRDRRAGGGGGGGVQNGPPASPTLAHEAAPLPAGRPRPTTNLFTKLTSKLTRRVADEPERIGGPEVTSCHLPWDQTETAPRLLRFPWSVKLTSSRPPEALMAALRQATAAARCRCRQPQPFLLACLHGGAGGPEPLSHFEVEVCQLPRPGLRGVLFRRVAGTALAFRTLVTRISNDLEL

[9] = molecular target: T2, Cyclin-dependent kinase 5; assay: Selectivity interaction (KinomeScan (DiscoverX)) EUB0001049a CDK5; conditions: at 1 µM
[10] = molecular target: T4, Dual specificity protein kinase CLK4 (Homo sapiens, UniProt Q9HAZ1); assay: Selectivity interaction (KinomeScan (DiscoverX)) EUB0000666a CLK4; conditions: at 10 µM
T4 sequence (Q9HAZ1 whole entry, looked up): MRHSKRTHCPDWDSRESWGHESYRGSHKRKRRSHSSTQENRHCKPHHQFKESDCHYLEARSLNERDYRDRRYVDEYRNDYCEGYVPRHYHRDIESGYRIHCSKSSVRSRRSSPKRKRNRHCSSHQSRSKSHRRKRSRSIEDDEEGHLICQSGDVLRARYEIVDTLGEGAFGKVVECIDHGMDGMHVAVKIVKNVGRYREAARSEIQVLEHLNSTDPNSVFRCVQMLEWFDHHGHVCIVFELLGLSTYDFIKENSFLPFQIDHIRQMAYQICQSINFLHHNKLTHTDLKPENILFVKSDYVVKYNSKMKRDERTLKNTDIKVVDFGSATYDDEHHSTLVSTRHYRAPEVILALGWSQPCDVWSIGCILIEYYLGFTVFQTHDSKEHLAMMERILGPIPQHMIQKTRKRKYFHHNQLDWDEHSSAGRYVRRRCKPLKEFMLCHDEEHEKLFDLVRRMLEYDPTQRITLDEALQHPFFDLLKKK

[11] = molecular target: T4, Dual specificity protein kinase CLK4; assay: Selectivity interaction (KinomeScan (DiscoverX)) EUB0000092b CLK4; conditions: at 10 µM
[12] = molecular target: CDK4/Cyclin D3 (Homo sapiens) (UniProt P11802+P30281); assay: (§1) Selectivity interaction (Rxn Biology Kinase assay) EUB0001632a CDK4; assay type: protein-complex assay; conditions: at 10 µM
[13] = molecular target: Cyclin-dependent kinase 4/cyclin D1 (Homo sapiens) (UniProt P11802+P24385); assay: as §1; assay type: protein-complex assay; conditions: at 10 µM
[14] = molecular target: T5, Serine/threonine-protein kinase BRSK1 (Homo sapiens) (UniProt Q8TDC3); assay: Selectivity interaction (Kinase screening (Nanosyn)) EUB0000604a BRSK1
T5 sequence (whole entry): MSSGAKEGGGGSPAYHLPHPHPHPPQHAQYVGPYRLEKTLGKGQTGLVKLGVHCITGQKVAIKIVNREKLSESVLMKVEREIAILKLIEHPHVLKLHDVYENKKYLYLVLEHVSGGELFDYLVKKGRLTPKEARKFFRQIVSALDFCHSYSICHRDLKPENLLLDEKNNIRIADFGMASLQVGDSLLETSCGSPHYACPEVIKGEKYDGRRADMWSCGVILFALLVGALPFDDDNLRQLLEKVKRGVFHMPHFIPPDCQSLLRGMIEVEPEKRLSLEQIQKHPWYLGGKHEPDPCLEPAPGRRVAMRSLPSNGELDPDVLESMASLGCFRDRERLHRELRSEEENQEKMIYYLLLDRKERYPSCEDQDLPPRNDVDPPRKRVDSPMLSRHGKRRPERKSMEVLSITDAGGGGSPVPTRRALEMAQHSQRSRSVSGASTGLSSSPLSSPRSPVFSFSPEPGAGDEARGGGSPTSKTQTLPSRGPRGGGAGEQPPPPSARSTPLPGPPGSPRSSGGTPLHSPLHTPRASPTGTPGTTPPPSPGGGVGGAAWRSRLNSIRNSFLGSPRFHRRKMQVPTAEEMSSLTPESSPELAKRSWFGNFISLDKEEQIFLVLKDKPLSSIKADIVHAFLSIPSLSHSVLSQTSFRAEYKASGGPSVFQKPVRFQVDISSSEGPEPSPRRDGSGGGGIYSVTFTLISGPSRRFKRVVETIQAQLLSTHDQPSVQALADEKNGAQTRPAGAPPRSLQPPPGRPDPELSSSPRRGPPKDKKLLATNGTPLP

[15] = molecular target: Ribosomal protein S6 kinase alpha-3 (Homo sapiens, UniProt P51812); assay: Selectivity interaction (KinomeScan (DiscoverX)) EUB0000695a RPS6KA3; conditions: at 100 nM

CN(C(=O)c1cnn2cccnc12)c1cc2c(cc1N1CCOCC1)C(=O)N(C[C@@H](F)C(C)(C)O)C2
dTM [1]: 2.1 K

CNC(=O)Nc1ccc(-c2nc(N3CC4CCC(C3)O4)c3cnn(C4CCC5(CC4)OCCO5)c3n2)cc1
% of inhibition [2]: 8% | % of control [3]: 100%

COCC(=O)NC/C=C/c1ccc2ncnc(Nc3ccc(Oc4ccc(C)nc4)c(C)c3)c2c1 [CP-724714]
% of control [4]: 100%

CC[C@@H]1[C@H](F)C(=O)N[C@@H]1COc1nccc2cc(C(N)=O)c(OC)cc12 [ZIMLOVISERTIB]
% of inhibition [5]: 91.4% | % of inhibition [6]: 25.9% | % of inhibition [7]: 8.4%

C=CC(=O)Nc1cccc(C(=O)Nc2ccc(Nc3cc(-c4[nH]c(SC)nc4C)ccn3)cc2)c1
% of control ([8]; at 1 µM): 92% | % of control ([8]; at 5 µM): 99%

COc1cc(Nc2nc(C)cc(-c3cnn4nc(OC)ccc34)n2)cc(C(F)(F)F)c1
% of control [9]: 89%

O=C(NOC[C@H](O)CO)c1ccc(F)c(F)c1Nc1ccc(I)cc1F
% of control [10]: 89%

CCC(=O)N1CCN(c2ccc(-n3c(=O)ccc4cnc5ccc(-c6cnc7ccccc7c6)cc5c43)cc2C(F)(F)F)CC1
% of control [11]: 49%

Cn1cc(-n2cnc3c(NCc4nc5cc(Cl)c(Cl)cc5[nH]4)nc(N4CCOCC4)nc32)cn1
% of inhibition [12]: 46.3% | % of inhibition [13]: 46.7%

Cc1cnc(Nc2ccc(F)cc2Cl)nc1-c1c[nH]c(C(=O)N[C@H](CO)c2cccc(Cl)c2)c1
% of inhibition [14]: 0%

Cc1cc(F)c(C(=O)Nc2cccc(-c3nncn3C(C)C)n2)cc1-n1cnc(C2CC2)c1
% of control [15]: 98%
